For 6 compounds, Activity results are on record in ChEMBL document CHEMBL1144600, “Efficient synthesis and biological evaluation of omega-oxygenated analogues of vitamin K2: study of modification and structure-activity relationship of vitamin K2 metabolites” (2007).

Activity calls are given as the source filed them. The calls are words filed in the database; no cut-off is given here.

This assay relates to HL-60. As to the kind of experiment: Apoptosis inducing activity in human HL60 cells at 10 uM after 74 hrs. The class given is functional.

For `CC1=C(C/C=C(\C)CC/C=C(\C)CC/C=C(\C)CC/C=C(\C)C=O)C(=O)c2ccccc2C1=O`, the outcome was inactive.
Compound `CC1=C(C/C=C(\C)CC/C=C(\C)CC/C=C(\C)CC/C=C(\C)CO)C(=O)c2ccccc2C1=O` returned an Activity of 15%.
Regarding `CC1=C(C/C=C(\C)CC/C=C(\C)C=O)C(=O)c2ccccc2C1=O`, the outcome was inactive.
For the compound `CC1=C(C/C=C(\C)CC/C=C(\C)CC/C=C(\C)CO)C(=O)c2ccccc2C1=O`, the Activity came to 75%.
`CC1=C(C/C=C(\C)CC/C=C(\C)CC/C=C(\C)C=O)C(=O)c2ccccc2C1=O`: the result was inactive.
As to `CC1=C(C/C=C(\C)CC/C=C(\C)CO)C(=O)c2ccccc2C1=O`, the outcome was inactive.
